The NIST ThermoML archive (doi:10.1021/je049973v)

Details: Liquid; for speed of sound: Pulse-echo method; for mass density: Vibrating tube method

CCCCCCCCCCCCCCCCCc1ccccc1 [heptadecane, 1-phenyl-]
Details	mass density [kg/m3]	speed of sound [m/s]
303.15 K, 100 kPa	847.62	1422.6
303.15 K, 5000 kPa	850.37	–
303.15 K, 10000 kPa	853.14	1467.5
303.15 K, 15000 kPa	855.85	–
303.15 K, 20000 kPa	858.47	1510.9
303.15 K, 25000 kPa	861	–
303.15 K, 30000 kPa	863.37	1552
303.15 K, 35000 kPa	865.81	–
303.15 K, 40000 kPa	868.19	1590.5
303.15 K, 45000 kPa	870.43	–
303.15 K, 50000 kPa	872.65	1627.2
303.15 K, 55000 kPa	874.7	–
303.15 K, 60000 kPa	876.93	1661.9
303.15 K, 70000 kPa	–	1695.6
313.15 K, 100 kPa	840.87	1387.1
313.15 K, 5000 kPa	843.75	–
313.15 K, 10000 kPa	846.65	1433.6
313.15 K, 15000 kPa	849.47	–
313.15 K, 20000 kPa	852.17	1479.2
313.15 K, 25000 kPa	854.73	–
313.15 K, 30000 kPa	857.38	1520.4
313.15 K, 35000 kPa	859.9	–
313.15 K, 40000 kPa	862.24	1559.7
313.15 K, 45000 kPa	864.56	–
313.15 K, 50000 kPa	866.8	1597.9
313.15 K, 55000 kPa	869.08	–
313.15 K, 60000 kPa	870.6	1633.6
313.15 K, 70000 kPa	–	1667.3
313.15 K, 80000 kPa	–	1700
313.15 K, 90000 kPa	–	1731.8
313.15 K, 100000 kPa	–	1762
313.15 K, 110000 kPa	–	1790.2
313.15 K, 120000 kPa	–	1818.7
313.15 K, 130000 kPa	–	1847.1
323.15 K, 100 kPa	834.27	1352.6
323.15 K, 5000 kPa	837.23	–
323.15 K, 10000 kPa	840.29	1402.3
323.15 K, 15000 kPa	843.15	–
323.15 K, 20000 kPa	–	1447.9
